Data published in ChEMBL document CHEMBL5625216, “Design, synthesis, and biological evaluation of 3, 5-disubsituted-1H-pyrazolo[3,4-b]pyridines as multiacting inhibitors against microtubule and kinases” (Eur J Med Chem, 2023).

Experiments:
in vivo [1] = conditions: ICR, mouse, po, 15 mg/kg
in vivo [2] = conditions: ICR, mouse, po, 15 mg/kg; remark: listed apart in the source
in vivo [3] = conditions: ICR, mouse, iv, 5 mg/kg
in vivo [4] = conditions: ICR, mouse, iv, 5 mg/kg; remark: listed apart in the source
in vivo [5] = conditions: ICR, mouse, po, 15 mg/kg; remark: listed apart in the source
in vivo [6] = conditions: ICR, mouse, iv, 5 mg/kg; remark: listed apart in the source
in vivo [7] = conditions: ICR, mouse, po, 15 mg/kg; remark: listed apart in the source
in vivo [8] = conditions: ICR, mouse, iv, 5 mg/kg; remark: listed apart in the source
in vivo [9] = conditions: ICR, mouse, po, 15 mg/kg; remark: listed apart in the source
in vivo [10] = conditions: ICR, mouse, iv, 5 mg/kg; remark: listed apart in the source
in vivo [11] = conditions: ICR, mouse, iv, 5 mg/kg; remark: listed apart in the source

half-life at 24 h (in vivo [1]): 72 min
bioavailability at 24 h (in vivo [2]): 3.2%
Vd at 24 h (in vivo [3]): 1.3 L/kg
Cmax at 24 h (in vivo [4]): 3850 ng/mL
Cmax at 24 h (in vivo [5]): 115 ng/mL
AUC(0-t) at 24 h (in vivo [6]): 1150 ng·h/mL
AUC(0-t) at 24 h (in vivo [7]): 110 ng·h/mL
half-life at 24 h (in vivo [8]): 78 min
Tmax at 24 h (in vivo [9]): 18 min
Tmax at 24 h (in vivo [10]): 6 min
clearance at 24 h (in vivo [11]): 73.3 mL/min/kg
SMILES: COc1cc(-c2n[nH]c3ncc(-c4ccc(C)c(NCCO)c4)cc23)cc(OC)c1OC
